Experimental data taken from ChEMBL document CHEMBL5653631, “A Potent and Selective ULK1 Inhibitor Suppresses Autophagy and Sensitizes Cancer Cells to Nutrient Stress” (iScience, 2018).
Each block holds one compound with its values, some of them ahead of it.

Tests used:
[1] = species on record: Homo sapiens; assay: Inhibition of human recombinant p70S6K at 500 nM in presence of ATP by radiometric assay relative to control
[2] = biological target: Focal adhesion kinase 1 (Homo sapiens) (UniProt Q05397); assay: Inhibition of human recombinant FAK at 500 nM in presence of ATP by radiometric assay relative to control
Chain of Focal adhesion kinase 1 (Homo sapiens) (Q05397 2-1052 limits assumed): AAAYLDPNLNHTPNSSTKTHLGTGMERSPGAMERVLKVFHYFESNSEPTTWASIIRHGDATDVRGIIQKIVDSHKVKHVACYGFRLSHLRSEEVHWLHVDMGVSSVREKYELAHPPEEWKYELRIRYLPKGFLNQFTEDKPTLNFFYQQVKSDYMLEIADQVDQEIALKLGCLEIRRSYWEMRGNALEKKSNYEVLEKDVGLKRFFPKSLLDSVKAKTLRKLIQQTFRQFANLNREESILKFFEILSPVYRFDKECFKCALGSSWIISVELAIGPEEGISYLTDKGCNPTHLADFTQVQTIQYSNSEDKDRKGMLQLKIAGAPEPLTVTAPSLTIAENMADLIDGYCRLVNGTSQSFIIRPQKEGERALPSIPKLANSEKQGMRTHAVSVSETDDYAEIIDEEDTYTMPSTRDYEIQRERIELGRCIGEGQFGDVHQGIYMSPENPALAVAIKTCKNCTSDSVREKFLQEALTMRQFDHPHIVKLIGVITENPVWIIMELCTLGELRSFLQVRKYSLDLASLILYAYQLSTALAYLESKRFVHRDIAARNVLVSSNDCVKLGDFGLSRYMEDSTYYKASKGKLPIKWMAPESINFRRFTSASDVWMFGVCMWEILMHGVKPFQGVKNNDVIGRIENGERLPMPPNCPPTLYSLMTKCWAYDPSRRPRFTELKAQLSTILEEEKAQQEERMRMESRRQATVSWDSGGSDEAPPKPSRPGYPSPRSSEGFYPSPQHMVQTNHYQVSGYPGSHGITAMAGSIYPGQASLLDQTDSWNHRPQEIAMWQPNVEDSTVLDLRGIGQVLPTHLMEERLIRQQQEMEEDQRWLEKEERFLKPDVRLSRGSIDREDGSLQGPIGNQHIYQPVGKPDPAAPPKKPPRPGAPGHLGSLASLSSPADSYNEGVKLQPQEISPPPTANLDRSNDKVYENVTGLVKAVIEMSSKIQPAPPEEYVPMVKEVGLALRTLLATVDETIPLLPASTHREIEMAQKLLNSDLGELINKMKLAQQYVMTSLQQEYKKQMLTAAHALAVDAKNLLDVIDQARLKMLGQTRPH

[3] = biological target: Serine/threonine-protein kinase pim-3 (Homo sapiens) (UniProt Q86V86); assay: Inhibition of human recombinant PIM3 at 500 nM related to control ULK1
[4] = biological target: T1, Calcium/calmodulin-dependent protein kinase type IV (Homo sapiens) (UniProt Q16566); assay: Inhibition of human recombinant CaMK4 at 500 nM related to control ULK1
T1 sequence (whole entry): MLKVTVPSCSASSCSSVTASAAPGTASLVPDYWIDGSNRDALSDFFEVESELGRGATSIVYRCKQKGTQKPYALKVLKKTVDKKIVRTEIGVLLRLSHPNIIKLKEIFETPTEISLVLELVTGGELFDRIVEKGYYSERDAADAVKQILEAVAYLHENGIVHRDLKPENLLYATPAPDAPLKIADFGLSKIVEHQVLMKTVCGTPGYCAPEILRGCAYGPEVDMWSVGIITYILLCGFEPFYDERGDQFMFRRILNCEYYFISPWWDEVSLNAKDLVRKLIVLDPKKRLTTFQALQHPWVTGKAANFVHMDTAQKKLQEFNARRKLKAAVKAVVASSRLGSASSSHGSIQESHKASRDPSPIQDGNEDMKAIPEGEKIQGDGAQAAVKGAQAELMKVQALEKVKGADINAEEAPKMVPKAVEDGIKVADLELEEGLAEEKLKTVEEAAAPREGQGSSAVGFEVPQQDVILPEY

[5] = biological target: T2, Muscle, skeletal receptor tyrosine-protein kinase (Homo sapiens) (UniProt O15146); assay: Inhibition of human recombinant MUSK at 40 nM related to control ULK1
T2 sequence (whole entry): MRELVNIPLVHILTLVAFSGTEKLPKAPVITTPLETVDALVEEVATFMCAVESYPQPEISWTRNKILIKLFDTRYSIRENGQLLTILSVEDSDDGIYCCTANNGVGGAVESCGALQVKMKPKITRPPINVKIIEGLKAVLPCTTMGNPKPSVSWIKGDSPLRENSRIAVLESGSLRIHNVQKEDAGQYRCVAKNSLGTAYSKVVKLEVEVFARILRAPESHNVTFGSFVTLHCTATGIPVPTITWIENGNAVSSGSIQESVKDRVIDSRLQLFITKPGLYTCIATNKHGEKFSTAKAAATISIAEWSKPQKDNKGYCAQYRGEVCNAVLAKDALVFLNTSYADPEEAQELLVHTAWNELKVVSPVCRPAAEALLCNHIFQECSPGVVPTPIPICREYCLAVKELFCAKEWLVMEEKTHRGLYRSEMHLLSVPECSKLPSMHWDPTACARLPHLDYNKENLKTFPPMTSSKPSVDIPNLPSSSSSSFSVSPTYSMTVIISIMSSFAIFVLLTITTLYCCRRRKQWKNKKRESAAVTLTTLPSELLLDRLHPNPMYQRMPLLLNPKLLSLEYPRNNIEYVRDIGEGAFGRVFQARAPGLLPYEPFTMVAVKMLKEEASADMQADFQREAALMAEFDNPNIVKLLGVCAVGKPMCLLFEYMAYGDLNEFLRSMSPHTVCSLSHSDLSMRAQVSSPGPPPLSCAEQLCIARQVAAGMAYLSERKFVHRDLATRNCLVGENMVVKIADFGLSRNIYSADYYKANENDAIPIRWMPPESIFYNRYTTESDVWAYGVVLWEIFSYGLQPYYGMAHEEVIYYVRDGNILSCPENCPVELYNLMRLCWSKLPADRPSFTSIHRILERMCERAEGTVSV

[6] = biological target: T3, Serine/threonine-protein kinase Nek11 (Homo sapiens) (UniProt Q8NG66); assay: Inhibition of human recombinant NEK11 at 15 nM related to control ULK1
T3 sequence (whole entry): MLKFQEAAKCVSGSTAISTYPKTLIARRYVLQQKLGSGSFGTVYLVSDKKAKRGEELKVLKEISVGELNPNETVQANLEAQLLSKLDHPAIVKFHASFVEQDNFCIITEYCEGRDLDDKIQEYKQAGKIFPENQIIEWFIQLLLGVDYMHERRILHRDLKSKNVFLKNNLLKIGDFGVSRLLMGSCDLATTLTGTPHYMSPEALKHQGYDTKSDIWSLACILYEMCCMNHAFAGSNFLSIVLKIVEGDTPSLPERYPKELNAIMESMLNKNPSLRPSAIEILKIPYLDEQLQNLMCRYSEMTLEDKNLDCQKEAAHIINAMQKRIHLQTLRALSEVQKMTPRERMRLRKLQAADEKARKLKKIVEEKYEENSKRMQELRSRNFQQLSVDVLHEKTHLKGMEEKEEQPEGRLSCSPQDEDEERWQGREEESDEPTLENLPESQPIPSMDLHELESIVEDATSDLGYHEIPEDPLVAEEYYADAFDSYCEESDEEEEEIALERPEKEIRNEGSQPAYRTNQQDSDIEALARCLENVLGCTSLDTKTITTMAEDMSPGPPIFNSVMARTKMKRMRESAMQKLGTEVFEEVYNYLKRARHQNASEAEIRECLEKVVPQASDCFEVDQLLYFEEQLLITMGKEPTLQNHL

[7] = biological target: Mitogen-activated protein kinase kinase kinase 20 (Homo sapiens) (UniProt Q9NYL2); assay: Inhibition of human recombinant ZAK at 15 nM related to control ULK1
Chain of Mitogen-activated protein kinase kinase kinase 20 (Homo sapiens) (Q9NYL2 2-800 limits assumed): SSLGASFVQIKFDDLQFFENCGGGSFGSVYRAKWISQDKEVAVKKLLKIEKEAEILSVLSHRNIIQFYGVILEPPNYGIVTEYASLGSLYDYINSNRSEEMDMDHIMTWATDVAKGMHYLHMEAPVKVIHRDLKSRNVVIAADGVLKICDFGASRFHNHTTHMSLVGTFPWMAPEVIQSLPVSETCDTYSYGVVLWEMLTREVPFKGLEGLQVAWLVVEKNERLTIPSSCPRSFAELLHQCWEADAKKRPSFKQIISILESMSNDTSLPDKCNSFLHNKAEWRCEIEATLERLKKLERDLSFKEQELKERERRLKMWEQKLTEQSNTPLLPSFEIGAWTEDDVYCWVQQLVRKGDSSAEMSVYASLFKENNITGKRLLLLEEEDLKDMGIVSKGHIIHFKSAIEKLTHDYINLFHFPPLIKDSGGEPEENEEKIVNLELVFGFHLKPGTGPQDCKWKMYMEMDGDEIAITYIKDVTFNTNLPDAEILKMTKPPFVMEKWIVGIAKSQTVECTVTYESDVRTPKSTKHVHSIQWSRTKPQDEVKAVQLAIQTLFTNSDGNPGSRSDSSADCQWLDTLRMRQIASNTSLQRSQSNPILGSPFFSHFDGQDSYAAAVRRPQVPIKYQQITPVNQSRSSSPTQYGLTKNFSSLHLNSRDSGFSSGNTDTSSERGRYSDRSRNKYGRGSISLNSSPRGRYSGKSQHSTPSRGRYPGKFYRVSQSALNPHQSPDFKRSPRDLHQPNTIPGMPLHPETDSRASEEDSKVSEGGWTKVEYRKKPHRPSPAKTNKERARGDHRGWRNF

[8] = biological target: T4, MAPK/MAK/MRK overlapping kinase (Homo sapiens) (UniProt Q9UQ07); assay: Inhibition of human recombinant MOK at 15 nM in presence of ATP by radiometric assay relative to control
T4 sequence (whole entry): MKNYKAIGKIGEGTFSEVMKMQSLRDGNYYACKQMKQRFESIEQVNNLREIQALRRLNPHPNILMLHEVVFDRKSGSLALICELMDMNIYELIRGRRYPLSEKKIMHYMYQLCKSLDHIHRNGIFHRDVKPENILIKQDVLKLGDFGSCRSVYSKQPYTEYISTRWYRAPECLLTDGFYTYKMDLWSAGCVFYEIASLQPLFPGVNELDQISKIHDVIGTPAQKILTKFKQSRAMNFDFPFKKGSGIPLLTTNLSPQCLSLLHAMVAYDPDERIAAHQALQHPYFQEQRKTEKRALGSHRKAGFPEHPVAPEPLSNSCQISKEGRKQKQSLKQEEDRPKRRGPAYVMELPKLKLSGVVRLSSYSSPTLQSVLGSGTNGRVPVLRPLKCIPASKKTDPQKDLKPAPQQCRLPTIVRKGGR

- inhibition [1]: 0%
- inhibition [2]: 71%
- fold change (FC) [3]: 0
- fold change (FC) [4]: 0
SMILES: CNC(=O)c1ccccc1Oc1nc(Nc2cc(OC)c(OC)c(OC)c2)ncc1Br

- fold change (FC) [5]: 0.18
SMILES: O=C(N[C@@H](C1CC1)C(F)(F)F)c1cc(-c2cnn3cc(-c4ccc(F)cc4)cnc23)cs1

- fold change (FC) [6]: 0
- fold change (FC) [7]: 0.3
- inhibition [8]: 5%
SMILES: CC(C)[C@H](NC(=O)c1cc(-c2cnn3cc(-c4ccc(OCCN5CCCCC5)cc4)cnc23)cs1)C(F)(F)F
